Laboratory results taken from patent publication US10267737B2, “Near-infrared fluorescent probe for detecting alkaline phosphatase and manufacturing method thereof” (KOREA RESEARCH INSTITUTE OF BIOSCIENCE AND BIOTECHNOLOGY, priority 2016, dated 2019).

Legend:
ALP [1] = experiment: Evaluation of sensitivity for ALP with ALP inhibitor p-BTO pre-treatment; type: biochemical; conditions: for sensitivity for ALP: with and without p-BTO pre-treatment
Experimental: After pre-treating with the ALP inhibitor p-BTO (p-bromotetramisole oxalate) at 1-2.5 mM, the fluorescent probe was mixed with ALP.

ALP [2] = experiment: Fluorescence response depending on ALP concentration; type: biochemical; conditions: for new absorption peak in the presence of ALP: probe 5 μM, ALP 0.1 UmL^−1, Tris-HCl 10 mM, pH 7.4; for fluorescence due to dephosphorylation of ALP: λex=685 nm
Experimental: Reactivity depending on ALP concentration was evaluated for the NIR-Phos-1 and NIR-Phos-2 fluorescent probes. After dissolving the fluorescent probe (5 μM) in a Tri-HCl buffer (10 mM, pH 7.4), the fluorescence spectrum occurring as a result of reaction with ALP (0.1 UmL^−1) was investigated.
From FIG. 5B and FIG. 5D, it can be seen that fluorescence spectra are changed variously by adding a Tris-HCl buffer (10 mM, pH 7.4) to ALP (10^−5 to 1.0 UmL^−1) of various concentrations.

[3] = Fluorescence stability (photostability) test; type: physicochemical; conditions: 685 nm light, 150-W xenon lamp, 1 hour, Tris-HCl 10 mM, pH 7.4
Experimental: The photostability of a fluorescent probe is important for in-vitro and in-vivo fluorescence detection. Therefore, the photostability of the NIR-Phos-1 and NIR-Phos-2 fluorescent probes was evaluated by irradiating light at 685 nm from a 150-W xenon lamp for 1 hour in a Tris-HCl buffer (10 mM, pH 7.4) and measuring the change in fluorescence intensity.

[4] = Affinity for calcium salts, NIR fluorescence imaging; type: binding; conditions: PBS buffer
Experimental: The affinity of the NIR-Phos-1 and NIR-Phos-2 fluorescent probes for a calcium salt-containing scaffold was evaluated. As the scaffold, calcium carbonate (CC), calcium phosphate (CP), hydroxyapatite (HA), calcium perchlorate (CPC), calcium chloride (CCH) and calcium nitrate (CN) were used. The fluorescent probe and the scaffold were immersed in a PBS buffer and subjected to NIR fluorescence imaging.

[5] = Affinity for scaffold, light absorption of probe solution after adsorption; type: binding; conditions: CDHA/DCPD scaffold
[6] = as above; type: binding; conditions: CDHA scaffold
ALP [7] = experiment: Evaluation of selective ALP detection; type: biochemical; conditions: versus BSA, trypsin, lysozyme, AcHE, GOx, uricase, thrombin
Text: ALP, BSA, trypsin, lysozyme, acetylcholinesterase (AcHE), glucose oxidase (GOx), uricase and thrombin were used for the evaluation.

Row | SMILES | hydrolysis of the fluorescent probe and ALP (ALP [1]; p-BTO 1-2.5 mM pre-treatment, fluorescence intensity decreased gradually as p-BTO concentration increased) | new absorption peak in the presence of ALP (ALP [2]) [nm] | fluorescence due to dephosphorylation of ALP (ALP [2]) [nm] | sensitivity for ALP (ALP [1]) | photostability (change in fluorescence intensity) [3] | affinity for hydroxyapatite (HA) particles compared to calcium salts CC, CP, CPC, CCH, CN [4] | decrease of light absorption by the probe solution after adsorption [5] [%] | decrease of light absorption by the probe solution after adsorption [6] [%] | selective detection of ALP (ALP [7])
1 | Brc1ccc(C2CN3CCSC3=N2)cc1.O=C(O)C(=O)O (stereo not drawn) [p-BTO, p-bromotetramisole oxalate, reference compound] | inhibited | – | – | – | – | – | – | – | –
2 | CC[N+]1=C(/C=C/C2=C3Oc4cc(OCc5ccc(OP(=O)(O)O)cc5)ccc4C=C3CCC2)C(C)(C)c2cc(S(=O)(=O)[O-])ccc21 [NIR-Phos-1, (E)-1-ethyl-3,3-dimethyl-2-(2-(6-((4-(phosphonooxy)benzyl)oxy)-2,3-dihydro-1H-xanthen-4-yl)vinyl)-3H-indol-1-ium-5-sulfonate] | – | 710 | 710 | good sensitivity | superior photostability | higher affinity | 3.8 | 29.4 | selectively detect ALP only
3 | CC[N+]1=C(/C=C/C2=C3Oc4cc(OP(=O)(O)O)ccc4C=C3CCC2)C(C)(C)c2cc(S(=O)(=O)[O-])ccc21 [NIR-Phos-2, (E)-1-ethyl-3,3-dimethyl-2-(2-(6-(phosphonooxy)-2,3-dihydro-1H-xanthen-4-yl)vinyl)-3H-indol-1-ium-5-sulfonate] | – | 710 | 710 | good sensitivity | superior photostability | higher affinity | – | – | selectively detect ALP only
